Reference: ChEMBL document CHEMBL4043204, “meso-Dihydroguaiaretic acid derivatives with antibacterial and antimycobacterial activity” (Bioorg Med Chem, 2017)
≈ marks a conversion by molar mass, not a printed value. Calls of active or inactive are those of the source. No cut-off for these calls is given here.

Each molecule was assayed on Staphylococcus haemolyticus (assay: Antibacterial activity against linezolid-resistant Staphylococcus haemolyticus 2975 assessed as inhibition of microbial growth incubated for 24 hrs by microdilution assay). Conditions: Staphylococcus haemolyticus, 2975, 24 h.
Assay type: functional
Work on CCCCCCCCCCCCCCCC(=O)Oc1ccc(C[C@H](C)[C@H](C)Cc2ccc(O)c(OC)c2)cc1OC (racemic) yielded an MIC greater than 50 mg/L.

These molecules were tested on Jonesia denitrificans (assay: Antibacterial activity against Listeria denitrificans). Conditions: not given.
Assay type: functional
Work on COc1cc(C[C@@H](C)[C@H](C)Cc2ccc(O)c(OC)c2)ccc1O [(-)-DIHYDROGUAIARETICACID] yielded an MIC of 400 µM (≈ 132 µg/mL).
Work on COc1cc(C[C@@H](C)[C@@H](C)Cc2ccc(O)c(OC)c2)ccc1O [MESODIHYDROGUAIARETIC ACID] yielded an MIC of 1600 µM (≈ 529 µg/mL).

The molecules below were run on Enterococcus faecium (assay: Antibacterial activity against vancomycin-resistant Enterococcus faecium (10-984) assessed as inhibition of microbial growth incubated for 24 hrs by microdilution assay). Conditions: not given.
Assay type: functional
Molecule CCCCCCCCCCCCCCCC(=O)Oc1ccc(C[C@H](C)[C@H](C)Cc2ccc(O)c(OC)c2)cc1OC (racemic) has an MIC greater than 50 mg/L.

Each molecule was assayed on Staphylococcus aureus (assay: Antibacterial activity against methicillin-resistant Staphylococcus aureus (14-2095) assessed as inhibition of microbial growth incubated for 24 hrs by microdilution assay). Conditions: not given.
Assay type: functional
Molecule CCCCCCCCCCCCCCCC(=O)Oc1ccc(C[C@H](C)[C@H](C)Cc2ccc(O)c(OC)c2)cc1OC (racemic) has an MIC of 50 mg/L.

These molecules were tested on Staphylococcus epidermidis (assay: Antibacterial activity against linezolid-resistant Staphylococcus epidermidis (14-583) assessed as inhibition of microbial growth incubated for 24 hrs by microdilution assay). Conditions: not given.
Assay type: functional
CCCCCCCCCCCCCCCC(=O)Oc1ccc(C[C@H](C)[C@H](C)Cc2ccc(O)c(OC)c2)cc1OC (racemic) gave an MIC greater than 50 mg/L.

Each molecule was assayed on Mycobacterium tuberculosis (assay: Antimycobacterial activity against Mycobacterium tuberculosis H37Rv ATCC 27294 assessed as inhibition of mycobacterial growth up to 50 ug/ml incubated for 2 weeks by MABA method). Conditions: not given.
Assay type: functional
For CCCCCCCCCCCCCCCC(=O)Oc1ccc(C[C@@H](C)[C@@H](C)Cc2ccc(OC(=O)CCCCCCCCCCCCCCC)c(OC)c2)cc1OC, the “growth inhibition (GI)” value was “inactive”.
With CCCCCCCCCCCCCCCC(=O)Oc1ccc(C[C@H](C)[C@H](C)Cc2ccc(O)c(OC)c2)cc1OC (racemic) the “growth inhibition (GI)” value was “inactive”.

These molecules were tested on Bacillus subtilis (assay: Antibacterial activity against Bacillus subtilis). Conditions: not given.
Assay type: functional
COc1cc(C[C@@H](C)[C@H](C)Cc2ccc(O)c(OC)c2)ccc1O [(-)-DIHYDROGUAIARETICACID] was tested, and the MIC was 1600 µM (≈ 529 µg/mL).
Work on COc1cc(C[C@@H](C)[C@@H](C)Cc2ccc(O)c(OC)c2)ccc1O [MESODIHYDROGUAIARETIC ACID] yielded an MIC of 1600 µM (≈ 529 µg/mL).

The molecules below were run on Klebsiella pneumoniae (assay: Antibacterial activity against extended-spectrum beta-lactamase-positive Klebsiella pneumoniae (14-2081) assessed as inhibition of microbial growth up to 50 ug/ml incubated for 24 hrs by microdilution assay). Conditions: not given.
Assay type: functional
In the case of CCCCCCCCCCCCCCCC(=O)Oc1ccc(C[C@@H](C)[C@@H](C)Cc2ccc(OC(=O)CCCCCCCCCCCCCCC)c(OC)c2)cc1OC, the Activity is reported as “inactive”.
For CCCCCCCCCCCCCCCC(=O)Oc1ccc(C[C@H](C)[C@H](C)Cc2ccc(O)c(OC)c2)cc1OC (racemic), the Activity was “inactive”.

What follows are molecules tested on Mycobacterium tuberculosis (assay: Antimycobacterial activity against Mycobacterium tuberculosis H37Rv ATCC 27294 assessed as inhibition of mycobacterial growth incubated for 2 weeks by MABA method). Conditions: not given.
Assay type: functional
With CCCCCCCCCCCCCCCC(=O)Oc1ccc(C[C@@H](C)[C@@H](C)Cc2ccc(OC(=O)CCCCCCCCCCCCCCC)c(OC)c2)cc1OC the “-logMIC” value was 4.02.
With CCCCCCCCCCCCCCCC(=O)Oc1ccc(C[C@H](C)[C@H](C)Cc2ccc(O)c(OC)c2)cc1OC (racemic) the “-logMIC” value was 4.54.

Same assay, conditions: Mycobacterium tuberculosis, H37Rv ATCC 27294, 336 h
With COc1cc(C[C@@H](C)[C@@H](C)Cc2ccc(O)c(OC)c2)ccc1O [MESODIHYDROGUAIARETIC ACID] the MIC was 50 mg/L (≈ 151 µM).

Each molecule was assayed on Klebsiella pneumoniae (assay: Antibacterial activity against NDM-1 positive Klebsiella pneumoniae (14-3335) assessed as inhibition of microbial growth up to 50 ug/ml incubated for 24 hrs by microdilution assay). Conditions: not given.
Assay type: functional
CCCCCCCCCCCCCCCC(=O)Oc1ccc(C[C@@H](C)[C@@H](C)Cc2ccc(OC(=O)CCCCCCCCCCCCCCC)c(OC)c2)cc1OC was tested, and the Activity was “inactive”.
For CCCCCCCCCCCCCCCC(=O)Oc1ccc(C[C@H](C)[C@H](C)Cc2ccc(O)c(OC)c2)cc1OC (racemic), the Activity was “inactive”.

The molecules below were run on Staphylococcus aureus (assay: Antibacterial activity against Staphylococcus aureus). Conditions: not given.
Assay type: functional
With COc1cc(C[C@@H](C)[C@@H](C)Cc2ccc(O)c(OC)c2)ccc1O [MESODIHYDROGUAIARETIC ACID] the MIC was 1600 µM (≈ 529 µg/mL).

The molecules below were run on Staphylococcus aureus (assay: Antibacterial activity against methicillin-resistant Staphylococcus aureus). Conditions: not given.
Assay type: functional
With COc1cc(C[C@@H](C)[C@@H](C)Cc2ccc(O)c(OC)c2)ccc1O [MESODIHYDROGUAIARETIC ACID] the MIC was 50 mg/L (≈ 151 µM).

These molecules were tested on Escherichia coli (assay: Antibacterial activity against oxacillin-resistant Escherichia coli OXA-48 assessed as inhibition of microbial growth up to 50 ug/ml incubated for 24 hrs by microdilution assay). Conditions: not given.
Assay type: functional
CCCCCCCCCCCCCCCC(=O)Oc1ccc(C[C@@H](C)[C@@H](C)Cc2ccc(OC(=O)CCCCCCCCCCCCCCC)c(OC)c2)cc1OC was tested, and the Activity was “inactive”.
For CCCCCCCCCCCCCCCC(=O)Oc1ccc(C[C@H](C)[C@H](C)Cc2ccc(O)c(OC)c2)cc1OC (racemic), the Activity was “inactive”.

What follows are molecules tested on Stenotrophomonas maltophilia (assay: Antibacterial activity against trimethoprim-sulfamethoxazole-resistant Stenotrophomonas maltophilia assessed as inhibition of microbial growth up to 50 ug/ml incubated for 24 hrs by microdilution assay). Conditions: not given.
Assay type: functional
For CCCCCCCCCCCCCCCC(=O)Oc1ccc(C[C@@H](C)[C@@H](C)Cc2ccc(OC(=O)CCCCCCCCCCCCCCC)c(OC)c2)cc1OC, the Activity was “inactive”.
In the case of CCCCCCCCCCCCCCCC(=O)Oc1ccc(C[C@H](C)[C@H](C)Cc2ccc(O)c(OC)c2)cc1OC (racemic), the Activity is reported as “inactive”.

The molecules below were run on Acinetobacter baumannii (assay: Antibacterial activity against carbapenem-resistant Acinetobacter baumannii (12-666) assessed as inhibition of microbial growth up to 50 ug/ml incubated for 24 hrs by microdilution assay). Conditions: not given.
Assay type: functional
In the case of CCCCCCCCCCCCCCCC(=O)Oc1ccc(C[C@@H](C)[C@@H](C)Cc2ccc(OC(=O)CCCCCCCCCCCCCCC)c(OC)c2)cc1OC, the Activity is reported as “inactive”.
In the case of CCCCCCCCCCCCCCCC(=O)Oc1ccc(C[C@H](C)[C@H](C)Cc2ccc(O)c(OC)c2)cc1OC (racemic), the Activity is reported as “inactive”.

These molecules were tested on Providencia rettgeri (assay: Antibacterial activity against NDM-1 positive Providencia rettgeri assessed as inhibition of microbial growth up to 50 ug/ml incubated for 24 hrs by microdilution assay). Conditions: not given.
Assay type: functional
For CCCCCCCCCCCCCCCC(=O)Oc1ccc(C[C@@H](C)[C@@H](C)Cc2ccc(OC(=O)CCCCCCCCCCCCCCC)c(OC)c2)cc1OC, the Activity was “inactive”.
In the case of CCCCCCCCCCCCCCCC(=O)Oc1ccc(C[C@H](C)[C@H](C)Cc2ccc(O)c(OC)c2)cc1OC (racemic), the Activity is reported as “inactive”.

The molecules below were run on Escherichia coli (assay: Antibacterial activity against extended-spectrum beta-lactamase-positive Escherichia coli (14-2081) assessed as inhibition of microbial growth up to 50 ug/ml incubated for 24 hrs by microdilution assay). Conditions: not given.
Assay type: functional
CCCCCCCCCCCCCCCC(=O)Oc1ccc(C[C@@H](C)[C@@H](C)Cc2ccc(OC(=O)CCCCCCCCCCCCCCC)c(OC)c2)cc1OC was tested, and the Activity was “inactive”.
CCCCCCCCCCCCCCCC(=O)Oc1ccc(C[C@H](C)[C@H](C)Cc2ccc(O)c(OC)c2)cc1OC (racemic) was tested, and the Activity was “inactive”.

What follows are molecules tested on Pseudomonas aeruginosa (assay: Antibacterial activity against carbapenem-resistant Pseudomonas aeruginosa (13-1391) assessed as inhibition of microbial growth up to 50 ug/ml incubated for 48 hrs by microdilution assay). Conditions: not given.
Assay type: functional
In the case of CCCCCCCCCCCCCCCC(=O)Oc1ccc(C[C@@H](C)[C@@H](C)Cc2ccc(OC(=O)CCCCCCCCCCCCCCC)c(OC)c2)cc1OC, the Activity is reported as “inactive”.
In the case of CCCCCCCCCCCCCCCC(=O)Oc1ccc(C[C@H](C)[C@H](C)Cc2ccc(O)c(OC)c2)cc1OC (racemic), the Activity is reported as “inactive”.
